According to patent publication US11999746B2, “Compounds” (GlaxoSmithKline Intellectual Property Development Limited, priority 2014, dated 2024):

What was measured:
[1] = biological target: T1, recombinant human Lp-PLA2 (Homo sapiens, UniProt Q13093); experiment: (1b) hrThioPAF assay, recombinant human Lp-PLA2; assay type: biochemical; details: Examples 266-412 were tested here, one experiment or average of multiple experiments, read-out: rhLp-PLA2 (pIC50) (converted)
T1 sequence (Q13093 22-441): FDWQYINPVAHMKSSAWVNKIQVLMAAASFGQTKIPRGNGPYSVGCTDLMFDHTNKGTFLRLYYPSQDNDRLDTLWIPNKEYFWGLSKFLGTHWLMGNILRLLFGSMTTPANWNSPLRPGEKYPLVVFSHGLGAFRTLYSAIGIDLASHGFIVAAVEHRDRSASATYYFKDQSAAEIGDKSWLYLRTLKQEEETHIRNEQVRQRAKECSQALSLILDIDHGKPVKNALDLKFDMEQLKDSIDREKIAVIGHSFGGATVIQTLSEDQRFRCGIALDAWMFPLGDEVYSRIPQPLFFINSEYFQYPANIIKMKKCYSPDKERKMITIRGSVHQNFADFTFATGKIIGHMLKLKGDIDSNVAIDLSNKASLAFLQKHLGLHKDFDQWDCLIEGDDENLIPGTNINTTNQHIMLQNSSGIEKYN
Outline: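 Fluorogenic assay: 20 pM rhLp-PLA2 in 50 mM HEPES pH 7.4, 150 mM NaCl, 1 mM CHAPS with 1:3 serially diluted compounds; substrate mix of 40 μM 2-thio-PAF, 40 μM CPM, 400 μM NEM (pre-addition levels). 20 min at 25 °C in the dark; fluorescence ex 380/em 485 nm, pIC50 by curve fitting.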

[2] = biological target: T2, Lp-PLA2 in human plasma (Homo sapiens, UniProt Q13093); experiment: (3b) Lp-PLA2 human plasma alternative Thio-PAF assay; assay type: biochemical; details: (3b) alternative Thio-PAF assay, pooled human plasma; Examples of 266-412 were tested here; read-out: pIC50 in the Lp-PLA2 human plasma assay (converted)
T2 construct: from tissue; host or cells: pooled human plasma
T2 sequence (Q13093 22-441): T1 sequence (Q13093 22-441)
Outline: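 Pooled human plasma was preincubated with compound for 15 min at RT. Substrate solution (2 mM 2-thio-PAF, 52 μM CPM, 2.5 mM NEM in 50 mM HEPES pH 7.4, 150 mM NaCl, 1 mM CHAPS; pre-addition concentrations) was added, and the reaction was quenched with 5% TFA after 3 min. Fluorescence was read at ex 380/em 485 nm and fitted to give pIC50.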

IC50 [1]	IC50 [2]	SMILES
≤ 10000 nM	≤ 100 nM	[2H]C1([2H])C2CN(C(C)=O)CCN2c2cc(OCc3ccc(F)c(C#N)c3)nc(=O)n21 (stereo not drawn) [Example E285, 5-(((2-Acetyl-11,11-dideutero-9-oxo-2,3,4,9,11,11a-hexahydro-1H-pyrazino[1′,2′:3,4]imidazo[1,2-c]pyrimidin-7-yl)oxy)methyl)-2-fluorobenzonitrile]
≤ 1 nM	≤ 100 nM	O=c1nc(OCc2cc(F)c(Oc3cncc(C(F)(F)F)c3)c(F)c2)cc2n1CC1C[S+]([O-])CCN21 (stereo not drawn) [Example E372, 7-((3,5-Difluoro-4-((5-(trifluoromethyl)pyridin-3-yl)oxy)benzyl)oxy)-3,4,11,11a-tetrahydropyrimido[6′,1′:2,3]imidazo[5,1-c][1,4]thiazin-9(1H)-one 2-oxide]
≤ 10000 nM	≤ 100 nM	N#Cc1cc(COc2cc3n(c(=O)n2)CC2C[S+]([O-])CCN32)ccc1F (stereo not drawn) [Example E366, 2-Fluoro-5-(((2-oxido-9-oxo-1,3,4,9,11,11a-hexahydropyrimido[6′,1′:2,3]imidazo[5,1-c][1,4]thiazin-7-yl)oxy)methyl)benzonitrile]
≤ 10000 nM	≤ 100 nM	Cc1ccc(Oc2c(F)cc(COc3cc4n(c(=O)n3)CC3(CCOCC3)N4)cc2F)cn1 [Example 403, 7-((3,5-Difluoro-4-((6-methylpyridin-3-yl)oxy)benzyl)oxy)-2′,3′,5′,6′-tetrahydro-1H-spiro[imidazo[1,2-c]pyrimidine-2,4′-pyran]-5(3H)-one]
≤ 10000 nM	≤ 100 nM	CC(C)CC(=O)N1CCN2c3cc(OCc4ccc(F)c(C#N)c4)nc(=O)n3CC2C1 (stereo not drawn) [Example E293, 2-Fluoro-5-(((2-(3-methylbutanoyl)-9-oxo-2,3,4,9,11,11a-hexahydro-1H pyrazino[1′,2′:3,4]imidazo[1,2-c]pyrimidin-7-yl)oxy)methyl)benzonitrile]
≤ 10000 nM	≤ 100 nM	N#Cc1cc(COc2cc3n(c(=O)n2)CC2CN(CCC(=O)O)CCN32)ccc1F (stereo not drawn) [Example E325, 3-(7-((3-Cyano-4-fluorobenzyl)oxy)-9-oxo-3,4,11,11a-tetrahydro-1H-pyrazino[1,2′:3,4]imidazo[1,2-c]pyrimidin-2(9H)-yl)propanoic acid]
≤ 10000 nM	≤ 100 nM	CC(C)(C)C(=O)N1CCN2c3cc(OCc4ccc(F)c(C#N)c4)nc(=O)n3CC2C1 (stereo not drawn) [Example E294, 2-Fluoro-5-(((9-oxo-2-pivaloyl-2,3,4,9,11,11a-hexahydro-1H-pyrazino[1′,2′:3,4]imidazo[1,2-c]pyrimidin-7-yl)oxy)methyl)benzonitrile 2,2,2-trifluoroacetate]
≤ 10000 nM	≤ 100 nM	O=C([C@@H]1CC(F)(F)CN1)N1CCN2c3cc(OCc4ccc(F)c(F)c4)nc(=O)n3CC2C1 (stereo partly drawn) [Example E342, 7-((3,4-Difluorobenzyl)oxy)-2-((S)-4,4-difluoropyrrolidin-2-carbonyl)-3,4,11,11a-tetrahydro-1H-pyrazino[1,2′:3,4]imidazo[1,2-c]pyrimidin-9(2H)-one]
≤ 10000 nM	≤ 100 nM	CC(C)C(=O)C(=O)N1CCN2c3cc(OCc4ccc(F)c(F)c4)nc(=O)n3CC2C1 (stereo not drawn) [Example E303, 1-(7-((3,4-Difluorobenzyl)oxy)-9-oxo-3,4,11,11a-tetrahydro-1H-pyrazino[1′,2′:3,4]imidazo[1,2-c]pyrimidin-2(9H)-yl)-3-methylbutane-1,2-dione]
≤ 10000 nM	≤ 100 nM	N#Cc1cc(COc2cc3n(c(=O)n2)C[C@@H]2C[C@H](O)CN32)ccc1F [Example E382, 2-Fluoro-5-((((7S,8aS)-7-hydroxy-1-oxo-1,6,7,8,8a,9-hexahydropyrrolo[1′,2′:3,4]imidazo[1,2-c]pyrimidin-3-yl)oxy)methyl)benzonitrile]
≤ 10000 nM	≤ 100 nM	CN1c2cc(OCc3ccc(F)c(F)c3)nc(=O)n2CC12COC2 [Example 398, 7-((3,4-Difluorobenzyl)oxy)-1-methyl-1H-spiro[imidazo[1,2-c]pyrimidine-2,3′-oxetan]-5(3H)-one]
≤ 10000 nM	≤ 100 nM	CC(C)(C)C(=O)N1CCN2c3cc(OCc4ccc(F)c(F)c4)nc(=O)n3CC2C1 (stereo not drawn) [Example E332, 7-((3,4-Difluorobenzyl)oxy)-2-pivaloyl-3,4,11,11a-tetrahydro-1H-pyrazino[1′,2′:3,4]imidazo[1,2-c]pyrimidin-9(2H)-one]
≤ 10000 nM	≤ 100 nM	CCN1CCN2c3cc(OCc4ccc(F)c(C#N)c4)nc(=O)n3CC2C1 (stereo not drawn) [Example E280, 5-(((2-Ethyl-9-oxo-2,3,4,9,11,11a-hexahydro-1H-pyrazino[1′,2′:3,4]imidazo[1,2-c]pyrimidin-7-yl)oxy)methyl)-2-fluorobenzonitrile]
≤ 10000 nM	≤ 100 nM	O=c1nc(OCc2ccc(F)c(F)c2)cc2n1CC1(COC1)N2 [Example E396, 7-((3,4-difluorobenzyl)oxy)-1H-spiro[imidazo[1,2-c]pyrimidine-2,3′-oxetan]-5(3H)-one]
≤ 10000 nM	≤ 100 nM	CC(C)CN1CCN2c3cc(OCc4ccc(F)c(F)c4)nc(=O)n3CC2C1 (stereo not drawn) [Example E305, 7-((3,4-Difluorobenzyl)oxy)-2-isobutyl-3,4,11,11a-tetrahydro-1H-pyrazino[1′,2′:3,4]imidazo[1,2-c]pyrimidin-9(2H)-one]
≤ 1 nM	≤ 100 nM	O=c1nc(OCc2cc(F)c(Oc3cncc(C(F)(F)F)c3)c(F)c2)cc2n1CC1CSCCN21 (stereo not drawn) [Example E371, 7-((3,5-Difluoro-4-((5-(trifluoromethyl)pyridin-3-yl)oxy)benzyl)oxy)-3,4,11,11a-tetrahydropyrimido[6′,1′:2,3]imidazo[5,1-c][1,4]thiazin-9(1H)-one]
≤ 10000 nM	≤ 100 nM	CC(C)S(=O)(=O)N1CCN2c3cc(OCc4ccc(F)c(C#N)c4)nc(=O)n3CC2C1 (stereo not drawn) [Example E295, 2-Fluoro-5-(((2-(isopropylsulfonyl)-9-oxo-2,3,4,9,11,11a-hexahydro-1H-pyrazino[1′,2′:3,4]imidazo[1,2-c]pyrimidin-7-yl)oxy)methyl)benzonitrile 2,2,2-trifluoroacetate]
≤ 10000 nM	≤ 100 nM	N#Cc1cc(COc2cc3n(c(=O)n2)CC2CN(C(=O)C4(N)CC4)CCN32)ccc1F (stereo not drawn) [Example E297, 5-(((2-(1-Aminocyclopropanecarbonyl)-9-oxo-2,3,4,9,11,11a-hexahydro-1H-pyrazino[1′,2′:3,4]imidazo[1,2-c]pyrimidin-7-yl)oxy)methyl)-2-fluorobenzonitrile 2,2,2-trifluoroacetate]
≤ 10000 nM	≤ 100 nM	N#Cc1cc(COc2cc3n(c(=O)n2)CC2CN(C(=O)CCN)CCN32)ccc1F (stereo not drawn) [Example E288, 5-(((2-(3-Aminopropanoyl)-9-oxo-2,3,4,9,11,11a-hexahydro-1H-pyrazino[1′,2′:3,4]imidazo[1,2-c]pyrimidin-7-yl)oxy)methyl)-2-fluorobenzonitrile]
≤ 100 nM	≤ 100 nM	CC(=O)N1CCN2c3cc(OCc4ccc(F)c(F)c4)nc(=O)n3CC2C1 (stereo not drawn) [Example E315, 2-Acetyl-7-((3,4-difluorobenzyl)oxy)-3,4,11,11a-tetrahydro-1H-pyrazino[1′,2′:3,4]imidazo[1,2-c]pyrimidin-9(2H)-one]
≤ 10000 nM	≤ 100 nM	N#Cc1cc(COc2cc3n(c(=O)n2)CC2CN(C(=O)C(F)(F)F)CCN32)ccc1F (stereo not drawn) [Example E323, 2-Fluoro-5-(((9-oxo-2-(2,2,2-trifluoroacetyl)-2,3,4,9,11,11a-hexahydro-1H-pyrazino[1′,2′:3,4]imidazo[1,2-c]pyrimidin-7-yl)oxy)methyl)benzonitrile]
≤ 10000 nM	≤ 100 nM	O=c1nc(OCc2cc(F)c(Oc3ccnc(C(F)(F)F)c3)c(F)c2)cc2n1CC1CNCCN21 (stereo not drawn) [Example E270, 7-((3,5-Difluoro-4-((2-(trifluoromethyl)pyridin-4-yl)oxy)benzyl)oxy)-3,4,11,11a-tetrahydro-1H-pyrazino[1′,2′:3,4] imidazo [1,2-c]pyrimidin-9(2H)-one]
≤ 100 nM	≤ 100 nM	CC(C)C(=O)N1CCN2c3cc(OCc4ccc(F)c(F)c4)nc(=O)n3CC2C1 (stereo not drawn) [Example E310, 7-((3,4-Difluorobenzyl)oxy)-2-isobutyryl-3,4,11,11a-tetrahydro-1Hpyrazino[1′,2′:3,4] imidazo[1,2-c]pyrimidin-9(2H)-one]

SMILES	IC50 [1]	IC50 [2]
O=c1nc(OCc2ccc(F)c(F)c2)cc2n1CC1CNCCN21 (stereo not drawn) [Example E274, 7-((3,4-Difluorobenzyl)oxy)-3,4,11,11a-tetrahydro-1H-pyrazino[1′,2′:3,4] imidazo [1,2-c]pyrimidin-9(2H)-one]	≤ 100 nM	≤ 100 nM
